The source of these data is patent US9334246B2, “Substituted triazines for malaria treatment and chemoprophylaxis” (The United States of America, as represented by the …, priority 2013, dated 2016).

Converted amounts (≈) assume the structure as drawn.

The test system of one data set is P. falciparum D6. The data set is described as follows: Malaria SYBR Green Fluorescence Assay, D6 strain. It is filed as cell-based, Plasmodium falciparum.
In a further data set the test system is P. falciparum W2. Description: Malaria SYBR Green Fluorescence Assay, W2 strain. The class given is cell-based, Plasmodium falciparum.
In the next data set the test system is P. falciparum C235. Description: Malaria SYBR Green Fluorescence Assay, C235 strain. The class given is cell-based, Plasmodium falciparum.
The subject of a further data set is P. berghei. Description: Thompson Test, in vivo mouse malaria assay. More on the design: species or system mice (ICR strain).
The target in data set [1] is hERG potassium ion channel (Homo sapiens, UniProt Q12809). Description: hERG patch clamp assay (% inhibition at 10 μM). On the technique in general: hERG is a cardiac potassium channel; its block is linked to QT prolongation.
Setting [2] is: (160 × 3): 160 mg/kg for 3 days.
Setting [3] is: % inhibition at 10 μM, patch clamp.
[4] abbreviates: Plasmodium falciparum, SYBR Green Assay.

Chain of hERG potassium ion channel (Q12809 whole entry): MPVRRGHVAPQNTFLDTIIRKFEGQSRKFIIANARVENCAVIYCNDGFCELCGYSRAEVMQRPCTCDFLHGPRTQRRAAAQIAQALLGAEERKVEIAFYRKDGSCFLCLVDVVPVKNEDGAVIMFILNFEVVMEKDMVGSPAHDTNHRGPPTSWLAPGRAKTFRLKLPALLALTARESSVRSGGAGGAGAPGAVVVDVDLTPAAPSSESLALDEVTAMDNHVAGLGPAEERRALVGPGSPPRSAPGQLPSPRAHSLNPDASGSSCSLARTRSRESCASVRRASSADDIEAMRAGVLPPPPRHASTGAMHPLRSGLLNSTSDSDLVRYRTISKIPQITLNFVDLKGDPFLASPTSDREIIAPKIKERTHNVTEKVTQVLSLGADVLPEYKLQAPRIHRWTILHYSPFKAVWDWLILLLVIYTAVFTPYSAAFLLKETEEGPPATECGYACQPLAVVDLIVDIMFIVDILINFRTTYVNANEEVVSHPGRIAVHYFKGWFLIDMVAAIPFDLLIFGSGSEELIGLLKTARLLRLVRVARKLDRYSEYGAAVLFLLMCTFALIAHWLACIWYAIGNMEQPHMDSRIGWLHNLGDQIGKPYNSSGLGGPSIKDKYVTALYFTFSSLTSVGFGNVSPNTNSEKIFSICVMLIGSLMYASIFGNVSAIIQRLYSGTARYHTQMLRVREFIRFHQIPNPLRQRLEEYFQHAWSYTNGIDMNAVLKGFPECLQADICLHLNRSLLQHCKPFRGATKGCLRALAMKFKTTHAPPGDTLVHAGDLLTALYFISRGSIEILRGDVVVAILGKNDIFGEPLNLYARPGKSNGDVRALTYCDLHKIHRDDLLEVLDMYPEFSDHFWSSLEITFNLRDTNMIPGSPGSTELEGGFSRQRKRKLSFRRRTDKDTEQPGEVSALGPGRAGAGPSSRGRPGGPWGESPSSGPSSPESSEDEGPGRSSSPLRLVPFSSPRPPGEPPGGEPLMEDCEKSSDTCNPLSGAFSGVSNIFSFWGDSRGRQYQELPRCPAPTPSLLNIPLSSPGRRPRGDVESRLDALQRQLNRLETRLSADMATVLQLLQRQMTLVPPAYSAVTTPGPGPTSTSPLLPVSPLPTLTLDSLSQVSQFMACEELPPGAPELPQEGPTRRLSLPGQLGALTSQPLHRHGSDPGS

Turning to `ClC(Cl)(Cl)c1ccc(-c2nc(NCCN3CCCC3)nc(C(Cl)(Cl)Cl)n2)cc1` [Compound 57], the D6 in the data set on P. falciparum D6 (SYBR Green Assay) amounted to 10 ng/mL. The same molecule registered a W2 with P. falciparum W2 (SYBR Green Assay) of 6 ng/mL. Besides, the C235 with P. falciparum C235 (SYBR Green Assay) came out at 22 ng/mL. Moreover, the results for the “In vivo Results Thompson Assay (n/N Cures or Suppressive)” value (from here on “In vivo Results Thompson Assay”) in the data set with P. berghei ((80 × 3): 80 mg/kg for 3 days) and in the data set on P. berghei (setting [2]) were “Suppressive” and 5/5, respectively. In addition, in data set [1] (setting [3]), the hERG is recorded as 25%.

In the data set with P. falciparum D6 (SYBR Green Assay), `FC(F)(F)c1cccc(-c2nc(N3CCCNCC3)nc(C(Cl)(Cl)Cl)n2)c1` [Compound 108] had a D6 of 70 ng/mL. In addition, the W2 with P. falciparum W2 (SYBR Green Assay) is recorded as 47 ng/mL. The same molecule returned a C235 with P. falciparum C235 (SYBR Green Assay) of 82 ng/mL. Further, the “In vivo Results Thompson Assay” value with P. berghei ((80 × 3): 80 mg/kg for 3 days) is listed as “(80 × 3) Suppressive”. Further, in data set [1] (setting [3]), the hERG came to 28%.

On to “CCN1CCCC(C1)Nc2nc(Nc3cc(Cl)cc(Cl)c3)nc(n2)C(Cl)(Cl)Cl [Compound 638]”, for which the “D6 (SYBR Green Assay IC50)” value with P. falciparum D6 worked out at 0.005 µg/mL. Further, in the data set on P. falciparum W2, the “W2 (SYBR Green Assay IC50)” value was determined as 0.005 µg/mL. Also, in the data set with P. falciparum C235, the “C235 (SYBR Green Assay IC50)” value was found to be 0.005 µg/mL. Besides, the “In vivo Results Thompson Assay” value with P. berghei ((80 × 3): 80 mg/kg for 3 days) is recorded as “(80 × 3) Suppressive”. Also, the “hERG (% inhibition)” value in data set [1] (10 μM) came to 49%.

`CC(C)(N)CNc1nc(-c2ccccc2)nc(C(Cl)(Cl)Cl)n1` [Compound 312]: the D6 with P. falciparum D6 (SYBR Green Assay) is reported as 8 ng/mL. For the same molecule, the W2 in the data set with P. falciparum W2 (SYBR Green Assay) is on record as 3 ng/mL. The molecule further returned a C235 in the data set with P. falciparum C235 (SYBR Green Assay) of 18 ng/mL. Also, the “In vivo Results Thompson Assay” value with P. berghei ((40 × 3): 40 mg/kg for 3 days) is “Suppressive”; with P. berghei ((80 × 3): 80 mg/kg for 3 days), “(80 × 3) 3/3 Cures;(40 × 3)”. In data set [1] (setting [3]), this molecule gave a hERG of 65%.

As to `CS(=O)(=O)c1ccc(-c2nc(N3CCCNCC3)nc(C(Cl)(Cl)Cl)n2)cc1` [Compound 96], in the data set on P. falciparum D6 (SYBR Green Assay), the D6 was found to be 70 ng/mL. Moreover, the W2 in the data set with P. falciparum W2 (SYBR Green Assay) was 51 ng/mL. For the same molecule, the C235 in the data set on P. falciparum C235 (SYBR Green Assay) is 96 ng/mL. Further, the “In vivo Results Thompson Assay” value in the data set on P. berghei ((80 × 3): 80 mg/kg for 3 days) is “(80 × 3) Suppressive”. The hERG in data set [1] (setting [3]) is listed as 65%.

The molecule “Cc1ccc(cc1)c2nc(nc(n2)C(Cl)(Cl)Cl)N3CC4CC3CN4 [Compound 719]” gave a D6 in the data set with P. falciparum D6 (SYBR Green Assay) of 96 ng/mL. Moreover, the W2 with P. falciparum W2 (SYBR Green Assay) came to 68 ng/mL. In the data set on P. falciparum C235 (SYBR Green Assay), this molecule gave a C235 of 114 ng/mL. Besides, the “In vivo Results Thompson Assay” value in the data set with P. berghei ((80 × 3): 80 mg/kg for 3 days) was “(80 × 3) Suppressive; (160 × 3)”; in the data set with P. berghei (setting [2]) it was “Suppressive”. In data set [1] (hERG activity as % inhibition), this molecule gave a hERG of 10%.

In the case of `CC(C)(N)CNc1nc(-c2cccc(C(F)(F)F)c2)nc(C(Cl)(Cl)Cl)n1` [Compound 214], in the data set on P. falciparum D6 (SYBR Green Assay), the D6 is on record as 19 ng/mL. The W2 in the data set with P. falciparum W2 (SYBR Green Assay) is reported as 11 ng/mL. Moreover, in the data set on P. falciparum C235 (SYBR Green Assay), the C235 is 10 ng/mL. For the same molecule, the “In vivo Results Thompson Assay” value in the data set on P. berghei ((40 × 3): 40 mg/kg for 3 days) is 2/5; in the data set with P. berghei ((80 × 3): 80 mg/kg for 3 days) it was 5/5. Besides, the hERG in data set [1] (setting [3]) is listed as 42%.

In the case of `OCCN1CCN(c2nc(-c3ccc(C(Cl)(Cl)Cl)cc3)nc(C(Cl)(Cl)Cl)n2)CC1` [Compound 119], the D6 with P. falciparum D6 (SYBR Green Assay) came to 29 ng/mL. Moreover, the W2 with P. falciparum W2 (SYBR Green Assay) is listed as 12 ng/mL. The C235 in the data set with P. falciparum C235 (SYBR Green Assay) was found to be 46 ng/mL. In addition, the “In vivo Results Thompson Assay” value in the data set on P. berghei ((40 × 3): 40 mg/kg for 3 days) is on record as 1/5; with P. berghei ((80 × 3): 80 mg/kg for 3 days), 4/5. Moreover, in data set [1] (setting [3]), the hERG was 18%.

Turning to “NC1(CNC2═NC(═NC(═N2)C2═CC═C(C═C2)C2═CC═CC═C2)C(Cl)(Cl)Cl)CCCC1 [Compound 672]”, in the data set with P. falciparum D6 (SYBR Green Assay), the D6 stood at 46 ng/mL. Besides, the W2 in the data set on P. falciparum W2 (SYBR Green Assay) came to 30 ng/mL. The C235 in the data set on P. falciparum C235 (SYBR Green Assay) came to 68 ng/mL. The “In vivo Results Thompson Assay” value in the data set with P. berghei ((80 × 3): 80 mg/kg for 3 days) is on record as “(80 × 3) 4/4 Cures”. The hERG in data set [1] (hERG activity as % inhibition) was 33%.

On to `FC(F)(F)c1cccc(-c2nc(N3CC4CC3CN4)nc(C(Cl)(Cl)Cl)n2)c1` (centres unmarked) [Ex. 7, 2-(4-(trichloromethyl)-6-(3-(trifluoromethyl)phenyl)-1,3,5-triazin-2-yl)-2,5-diazabicyclo[2.2.1]heptane], for which the 50% inhibitory concentration (IC50) – broadly, the concentration needed to halve the response being measured – is 0.106 µg/mL (≈ 0.242 µM) in the data set on P. falciparum D6 (setting [4]), 0.126 µg/mL (≈ 0.287 µM) with P. falciparum W2 (setting [4]) and 0.192 µg/mL (≈ 0.438 µM) in the data set with P. falciparum C235 (setting [4]). Further, the “In vivo Results Thompson Assay” value was “Suppressive” with P. berghei ((80 × 3): 80 mg/kg for 3 days) and 4/5 in the data set with P. berghei (setting [2]). This molecule returned a hERG in data set [1] (hERG activity as % inhibition) of 29%.

In the data set with P. falciparum D6 (SYBR Green Assay), `COc1ccc(-c2nc(NC3CC(C)(C)NC(C)(C)C3)nc(C(Cl)(Cl)Cl)n2)cc1OC` [Compound 328] showed a D6 of 64 ng/mL. Moreover, in the data set with P. falciparum W2 (SYBR Green Assay), the W2 stood at 40 ng/mL. In addition, in the data set with P. falciparum C235 (SYBR Green Assay), the C235 is listed as 84 ng/mL. For the same molecule, the “In vivo Results Thompson Assay” value with P. berghei ((80 × 3): 80 mg/kg for 3 days) is “(80 × 3) 2/5 Cures”. Also, the hERG in data set [1] (setting [3]) came out at 31%.

Regarding `ClC(Cl)(Cl)c1nc(-c2ccc3ccccc3c2)nc(N2CCCNCC2)n1` [Compound 227], the D6 in the data set with P. falciparum D6 (SYBR Green Assay) was 29 ng/mL. The molecule also came in with a W2 with P. falciparum W2 (SYBR Green Assay) of 10 ng/mL. The molecule further showed a C235 with P. falciparum C235 (SYBR Green Assay) of 12 ng/mL. In the data set on P. berghei ((80 × 3): 80 mg/kg for 3 days), the “In vivo Results Thompson Assay” value is recorded as “(80 × 3) 2/5 Cures”. Besides, the hERG in data set [1] (setting [3]) worked out at 18%.

In the data set with P. falciparum D6 (SYBR Green Assay), “FC(F)(F)OC1═CC═C(NC2═NC(═NC(═N2)N2CCCNCC2)C(Cl)(Cl)Cl)C═C1 [Compound 659]” had a D6 of 19 ng/mL. The molecule further yielded a W2 in the data set on P. falciparum W2 (SYBR Green Assay) of 18 ng/mL. For the same molecule, the C235 with P. falciparum C235 (SYBR Green Assay) was found to be 38 ng/mL. The “In vivo Results Thompson Assay” value in the data set on P. berghei ((80 × 3): 80 mg/kg for 3 days) is “(80 × 3) 4/5 Cures”. The hERG in data set [1] (hERG activity as % inhibition) is on record as 58%.
